Drawing on PubChem BioAssay AID1259407 (Chemical Carcinogenesis Research Information System (CCRIS), 2018), this text covers mutagenic call for ten molecules.

The test system of this series is CCRIS mutagenicity, Ames/micronucleus/aberration tests. The experiment in a line: CCRIS mutagenicity studies.
Where [1] appears, read: Test System: AMES SALMONELLA TYPHIMURIUM, Strain/Indicator: TA97, Metabolic Activation: NONE, Method: STANDARD PLATE.
The mark [2] stands for this setting: Test System: AMES SALMONELLA TYPHIMURIUM, Strain/Indicator: TA97, Metabolic Activation: RAT, LIVER, S-9, AROCLOR 1254, Method: STANDARD PLATE.
Where [3] appears, read: Test System: AMES SALMONELLA TYPHIMURIUM, Strain/Indicator: TA98, Metabolic Activation: RAT, LIVER, S-9, AROCLOR 1254, Method: STANDARD PLATE.
Setting [4] is: Test System: AMES SALMONELLA TYPHIMURIUM, Strain/Indicator: TA100, Metabolic Activation: RAT, LIVER, S-9, AROCLOR 1254, Method: STANDARD PLATE.
The mark [5] stands for this setting: Test System: AMES SALMONELLA TYPHIMURIUM, Strain/Indicator: TA102, Metabolic Activation: RAT, LIVER, S-9, AROCLOR 1254, Method: STANDARD PLATE.
[6] abbreviates: Test System: AMES SALMONELLA TYPHIMURIUM, Strain/Indicator: TA1535, Metabolic Activation: NONE, Method: STANDARD PLATE.
The mark [7] stands for this setting: Test System: AMES SALMONELLA TYPHIMURIUM, Strain/Indicator: TA1535, Metabolic Activation: RAT, LIVER, S-9, AROCLOR 1254, Method: STANDARD PLATE.
The mark [8] stands for this setting: Test System: AMES SALMONELLA TYPHIMURIUM, Strain/Indicator: TA1537, Metabolic Activation: NONE, Method: STANDARD PLATE.
Where [9] appears, read: Test System: AMES SALMONELLA TYPHIMURIUM, Strain/Indicator: TA98, Metabolic Activation: NONE, Method: STANDARD PLATE.
Setting [10] is: Test System: AMES SALMONELLA TYPHIMURIUM, Strain/Indicator: TA100, Metabolic Activation: NONE, Method: STANDARD PLATE.
The mark [11] stands for this setting: Test System: AMES SALMONELLA TYPHIMURIUM, Strain/Indicator: TA100, Metabolic Activation: NONE, Method: PREINCUBATION

Molecules are shown by their SMILES. Calls of active or inactive are those of the source. How the calls were made is not given here.

As to `NC(=O)NO`, the mutagenic call is “active; positive; effect greater at 16 hr exposure” (End Point: IN VITRO MICRONUCLEUS, Test System: CHINESE HAMSTER V79 CELLS, Metabolic Activation: NONE); “active; positive” (End Point: IN VITRO MICRONUCLEUS, Test System: CHO CELLS, Metabolic Activation: RAT, LIVER, S-9, AROCLOR 1254); “active; positive (p<0.001)” (End Point: In vitro micronucleus, Test System: Human lymphoblastoid TK6 cells, Metabolic Activation: None); “active; positive” under setting [1]; “active; positive” under setting [2]; “active; positive” under setting [3]. Also, the mutagenic call under setting [4] was “active; positive”; the mutagenic call under setting [5] was “active; positive”; the mutagenic call under setting [6] is “inactive; negative”; the mutagenic call under setting [7] was “inactive; negative”; the mutagenic call under setting [8] was “inactive; negative”; the mutagenic call (Test System: E. COLI, Strain/Indicator: WP2 (HCR), Metabolic Activation: NONE, Method: STANDARD PLATE) is “inactive; negative”. Besides, the mutagenic call (Test System: MOUSE LYMPHOMA, Strain/Indicator: L5178Y (TK+/TK-), Metabolic Activation: NONE, Method: MICROWELL) was “active; positive”; the mutagenic call (Test System: MOUSE LYMPHOMA, Strain/Indicator: L5178Y (TK+/TK-), Metabolic Activation: NONE, Method: SUSPENSION/PLATE) was “active; positive”; the mutagenic call (Test System: MOUSE LYMPHOMA, Strain/Indicator: L5178Y (TK+/TK-), Metabolic Activation: S-9, Method: MICROWELL) is “active; positive”; the mutagenic call (Test System: UDS RODENT HEPATOCYTES, Strain/Indicator: THY INCORP (NON-S-PHASE), Metabolic Activation: NONE, Method: AUTORADIOGRAPHY) is “active; positive”.
As for `CC(C)CC(=O)OCc1cocc2c(C=O)ccc1-2`, the mutagenic call is, setting by setting: under setting [9], “active; positive”; under setting [3], “active; positive”; under setting [10], “active; positive”; under setting [4], “active; positive”; under setting [6], “inactive; negative”; under setting [7], “inactive; negative”. The mutagenic call under setting [8] is “inactive; negative” and the mutagenic call (Test System: AMES SALMONELLA TYPHIMURIUM, Strain/Indicator: TA1537, Metabolic Activation: RAT, LIVER, S-9, AROCLOR 1254, Method: STANDARD PLATE) was “inactive; negative”.
In the case of `C/C(O)=C1/C(=O)[C@@H]2[C@H]3c4c[nH]c5cccc(c45)C[C@H]3C(C)(C)N2C1=O`, the mutagenic call reads like this: under setting [11], “inactive; negative”; (Test System: AMES SALMONELLA TYPHIMURIUM, Strain/Indicator: TA100, Metabolic Activation: RAT, LIVER, S-9, PHENOBARBITAL, Method: PREINCUBATION) “inactive; negative”.
On to `N[C@@H](CCC(=O)N[C@@H](CS/C(Cl)=C\Cl)C(=O)NCC(=O)O)C(=O)O`, for which the mutagenic call is, setting by setting: (Test System: AMES SALMONELLA TYPHIMURIUM, Strain/Indicator: TA2638, Metabolic Activation: NONE, Method: PREINCUBATION) “active; positive”; (Test System: AMES SALMONELLA TYPHIMURIUM, Strain/Indicator: TA2638, Metabolic Activation: RAT, KIDNEY, CYTOSOL, Method: PREINCUBATION) “active; positive”; (Test System: AMES SALMONELLA TYPHIMURIUM, Strain/Indicator: TA2638, Metabolic Activation: RAT, KIDNEY, MICROSOMES, Method: PREINCUBATION) “active; positive”; (Test System: AMES SALMONELLA TYPHIMURIUM, Strain/Indicator: TA2638, Metabolic Activation: RAT, KIDNEY, MITOCHONDRIA, Method: PREINCUBATION) “active; positive”.
Regarding `ClCC1C(CCl)[C@@]2(Cl)C(Cl)=C(Cl)[C@]1(Cl)C2(Cl)Cl` (some centres undefined), the mutagenic call was “inactive; negative” under setting [1]; “inactive; negative” under setting [2]; “inactive; negative” under setting [9]; “inactive; negative” under setting [3]; “inactive; negative” under setting [10]; “inactive; negative” under setting [4]. The mutagenic call was “inactive; negative” (Test System: AMES SALMONELLA TYPHIMURIUM, Strain/Indicator: TA102, Metabolic Activation: NONE, Method: STANDARD PLATE) and “inactive; negative” under setting [5].
`C[N+]1=CC=C(c2ccccc2)CC1`: the mutagenic call by setting is: under setting [11], “active; positive”; (Test System: AMES SALMONELLA TYPHIMURIUM, Strain/Indicator: TA102, Metabolic Activation: NONE, Method: PREINCUBATION) “inactive; negative”.
On to `c1ccc2c(c1)ccc1cc3cnccc3cc12`, for which the mutagenic call by setting is: under setting [3], “active; positive”; under setting [4], “active; positive”.
As for `c1ccc([C@H]2O[C@@H]2c2ccccc2)cc1`, the mutagenic call under setting [10] is “inactive; negative” and the mutagenic call under setting [6] was “inactive; negative”.
As to `C=C1/C(=C\C=C2/CCC[C@]3(C)[C@@H]([C@H](C)CC[C@@H](O)C(C)C)CC[C@@H]23)C[C@@H](O)C[C@@H]1O`, the mutagenic call under setting [9] was “inactive; negative”; the mutagenic call (Test System: AMES SALMONELLA TYPHIMURIUM, Strain/Indicator: TA98, Metabolic Activation: RAT, LIVER, S-9, PHENOBARBITAL AND 5,6-BENZOFLAVONE, Method: PREINCUBATION) is “inactive; negative”; the mutagenic call under setting [10] is “inactive; negative”; the mutagenic call (Test System: AMES SALMONELLA TYPHIMURIUM, Strain/Indicator: TA100, Metabolic Activation: RAT, LIVER, S-9, PHENOBARBITAL AND 5,6-BENZOFLAVONE, Method: PREINCUBATION) is “inactive; negative”; the mutagenic call under setting [6] is “inactive; negative”; the mutagenic call (Test System: AMES SALMONELLA TYPHIMURIUM, Strain/Indicator: TA1535, Metabolic Activation: RAT, LIVER, S-9, PHENOBARBITAL AND 5,6-BENZOFLAVONE, Method: PREINCUBATION) is “inactive; negative”. The mutagenic call was “inactive; negative” under setting [8]; “inactive; negative” (Test System: AMES SALMONELLA TYPHIMURIUM, Strain/Indicator: TA1537, Metabolic Activation: RAT, LIVER, S-9, PHENOBARBITAL AND 5,6-BENZOFLAVONE, Method: PREINCUBATION); “inactive; negative” (Test System: AMES SALMONELLA TYPHIMURIUM, Strain/Indicator: TA1538, Metabolic Activation: NONE, Method: STANDARD PLATE); “inactive; negative” (Test System: AMES SALMONELLA TYPHIMURIUM, Strain/Indicator: TA1538, Metabolic Activation: RAT, LIVER, S-9, PHENOBARBITAL AND 5,6-BENZOFLAVONE, Method: PREINCUBATION); “inactive; negative” (Test System: E. COLI, Strain/Indicator: WP2 UVRA, Metabolic Activation: NONE, Method: STANDARD PLATE); “inactive; negative” (Test System: E. COLI, Strain/Indicator: WP2 UVRA, Metabolic Activation: RAT, LIVER, S-9, PHENOBARBITAL AND 5,6-BENZOFLAVONE, Method: PREINCUBATION).
Turning to `Oc1ccccc1F`, the mutagenic call is “active; positive. reevaluation of results: positive” (Test System: MOUSE LYMPHOMA, Strain/Indicator: L5178Y (TK+/TK-), Metabolic Activation: RAT, LIVER, S-9, AROCLOR 1254, Method: SUSPENSION/PLATE); “inactive; negative” (Test System: Mouse lymphoma, Strain/Indicator: L5178Y (tk+/tk-), Metabolic Activation: None, Method: Suspension/plate); “inactive; inconclusive (previous evaluation negative)” (Test System: Mouse lymphoma, Strain/Indicator: L5178Y (tk+/tk-), Metabolic Activation: Rat, Liver, S-9, Aroclor 1254, Method: Suspension/plate).
